Test results reported in US20130096123A1, “RADIATION SENSITISER COMPOSITIONS” (EUPHARMA PTY LTD, priority 2010, published 2013).
≈ marks a conversion by molar mass, not a printed value.

Experiments:
physchem = type: physicochemical
Description: A large number of these exist but in this formulation Hydroxypropyl beta Cyclodextrin (HPbCD) is used. HPbCD also assists masking the taste of the drug.
A solubility increase of above 10 fold is achieved and the room temperature solubility of nimorazole may be increased to the more dose convenient level of 100 mg/ml.
HPbCD complexes with nimorazole over a wide molar ratio, in this example the lower ratio of […] is used, therefore 226 g of nimorazole is used with 1400 g of HPbCD.

[1] = cited from earlier work

- solubility increase (physchem): above 10 fold
- solubility (physchem; aqueous with cosolvent or surfactant or cyclodextrin): 100 mg/mL (≈ 442 mM)
Structure (SMILES): O=[N+]([O-])c1cncn1CCN1CCOCC1 [Nimorazole, nimorazole]
- pKa [1]: 5.2
